The values below come from patent US20220396593A1, “SYNTHESIS AND CHARACTERIZATION OF VANADIUM COMPLEXES” (priority 2021, published 2022).

For series [1], the system named is oncolytic RNA viruses including vesicular stomatitis virus (VSV) and Measles. As to conditions: cited from earlier work.
A short description of series [2]: Solubility of vanadium complex solid in water / PBS buffer.
Series [3] can be described thus: Stability of vanadium complexes in water and PBS buffer (NMR, pH over time). As to conditions: pH adjusted to 7.4 where needed.

Consider `Cc1occc(=O)c1[O-].Cc1occc(=O)c1[O-].[O]=[V+2]` [bismaltolatoxovanadate (BMOV), bismaltolatoxovanadate], for which the “Effect on replication and spread of oncolytic RNA viruses” value (from here on “Effect on replication and spread”) in series [1] was “improve the replication and spread of oncolytic RNA viruses”.

Turning to `[O]=[V]([O-])([O-])[O-]` [orthovanadate], the “Effect on replication and spread” value in series [1] was “improve the replication and spread of oncolytic RNA viruses”.

As to `O=S(=O)([O-])[O-].[O]=[V+2]` [vanadyl sulfate], the “Effect on replication and spread” value in series [1] was “improve the replication and spread of oncolytic RNA viruses”.

Take “K3[(VO2)2(C6H6O7)(C6H5O7)]×3 H2O [CDOS150]”: in series [2] (solid dissolved into water and phosphate buffered saline (PBS) buffer), the “pH up to which the solid dissolved” value was at most 5. Moreover, the “Stability in solution and need for pH adjustment” value in series [3] is “the solutions did require initial pH adjustment”.

Regarding Na3[(V^IVO)2(C6H4O7)(C6H5O7)] [CDOS155], the Solubility result in series [2] (in water) is on record as “soluble in water”. In addition, the “pH up to which the solid dissolved” value in series [2] (solid mixed with PBS buffer) is at most 5. The “Stability in solution and need for pH adjustment” value in series [3] is “limited at pH 7.4 but similar in water or PBS but required continuous pH adjustment”.
